Laboratory results published in ChEMBL document CHEMBL1141723, “Specific targeting of metzincin family members with small-molecule inhibitors: progress toward a multifarious challenge” (Bioorg Med Chem, 2008).
Activity calls are given as the source filed them. The calls are words filed in the database; no cut-off is given here.

How the values were obtained:
Collagenase 3 [1] = biological target: T1, Collagenase 3 (Homo sapiens, UniProt P45452); assay: Inhibition of MMP13 at 10 ug/mL
[2] = biological target: Disintegrin and metalloproteinase domain-containing protein 33 (Homo sapiens, UniProt Q9BZ11); assay: Inhibition of ADAM33
[3] = biological target: T2, Matrix metalloproteinase-17 (Homo sapiens) (UniProt Q9ULZ9); assay: Inhibition of MMP17
T2 sequence (whole entry): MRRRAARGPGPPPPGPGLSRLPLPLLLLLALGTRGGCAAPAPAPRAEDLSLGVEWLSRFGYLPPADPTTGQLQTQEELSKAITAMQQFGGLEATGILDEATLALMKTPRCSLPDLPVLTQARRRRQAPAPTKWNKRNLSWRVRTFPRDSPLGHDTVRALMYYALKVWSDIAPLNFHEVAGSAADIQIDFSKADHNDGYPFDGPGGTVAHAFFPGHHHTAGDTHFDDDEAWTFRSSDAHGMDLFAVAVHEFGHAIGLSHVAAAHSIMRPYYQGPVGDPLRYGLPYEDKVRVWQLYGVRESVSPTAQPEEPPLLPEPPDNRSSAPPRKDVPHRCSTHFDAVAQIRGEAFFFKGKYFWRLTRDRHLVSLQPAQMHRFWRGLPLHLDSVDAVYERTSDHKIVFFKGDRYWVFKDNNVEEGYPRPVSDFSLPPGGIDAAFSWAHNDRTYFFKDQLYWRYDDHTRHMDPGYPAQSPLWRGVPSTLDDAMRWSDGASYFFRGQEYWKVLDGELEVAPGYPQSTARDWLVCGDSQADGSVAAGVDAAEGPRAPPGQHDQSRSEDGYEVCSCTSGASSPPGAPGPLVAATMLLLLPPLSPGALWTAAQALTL

Neutrophil collagenase = Neutrophil collagenase (Homo sapiens, UniProt P22894); assay: Inhibition of MMP8
[4] = biological target: Matrix metalloproteinase-9 (Homo sapiens, UniProt P14780); assay: Inhibition of MMP9
[5] = biological target: Matrix metalloproteinase-14 (Homo sapiens, UniProt P50281); assay: Inhibition of MMP14
[6] = biological target: Macrophage metalloelastase (Homo sapiens, UniProt P39900); assay: Inhibition of MMP12
[7] = biological target: T3, Interstitial collagenase (Homo sapiens) (UniProt P03956); assay: Inhibition of MMP1
T3 sequence (whole entry): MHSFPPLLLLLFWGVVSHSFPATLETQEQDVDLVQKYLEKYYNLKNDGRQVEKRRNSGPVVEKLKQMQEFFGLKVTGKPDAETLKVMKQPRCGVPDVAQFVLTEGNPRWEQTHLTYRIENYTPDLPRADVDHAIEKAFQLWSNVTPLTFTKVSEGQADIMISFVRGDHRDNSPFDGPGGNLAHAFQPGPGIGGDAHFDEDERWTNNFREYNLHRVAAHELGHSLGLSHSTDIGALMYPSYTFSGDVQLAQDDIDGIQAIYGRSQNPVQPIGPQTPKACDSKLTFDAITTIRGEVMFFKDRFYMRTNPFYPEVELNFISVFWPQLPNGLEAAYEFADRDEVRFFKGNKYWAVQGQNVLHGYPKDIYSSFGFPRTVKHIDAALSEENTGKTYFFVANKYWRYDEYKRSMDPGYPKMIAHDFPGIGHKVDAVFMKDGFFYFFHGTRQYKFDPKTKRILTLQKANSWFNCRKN

[8] = biological target: T4, Matrilysin (Homo sapiens) (UniProt P09237); assay: Inhibition of MMP7
T4 sequence (whole entry): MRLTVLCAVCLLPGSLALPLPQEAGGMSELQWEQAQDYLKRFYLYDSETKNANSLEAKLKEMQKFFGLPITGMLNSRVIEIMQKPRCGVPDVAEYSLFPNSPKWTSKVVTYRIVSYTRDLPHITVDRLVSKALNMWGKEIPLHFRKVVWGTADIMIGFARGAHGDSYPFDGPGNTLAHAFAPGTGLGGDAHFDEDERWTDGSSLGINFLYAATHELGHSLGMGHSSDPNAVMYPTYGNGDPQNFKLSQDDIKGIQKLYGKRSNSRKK

[9] = biological target: Disintegrin and metalloproteinase domain-containing protein 9 (Homo sapiens, UniProt Q13443)
Interstitial collagenase = biological target: T5, Interstitial collagenase (Homo sapiens, UniProt P03956)
T5 sequence (P03956 whole entry): T3 sequence (whole entry)

[10] = biological target: 72 kDa type IV collagenase (Homo sapiens, UniProt P08253)
Stromelysin-1 = Stromelysin-1 (Homo sapiens, UniProt P08254)
Matrilysin = biological target: T6, Matrilysin (Homo sapiens, UniProt P09237)
T6 sequence (P09237 whole entry): T4 sequence (whole entry)

Collagenase 3 [11] = biological target: T1, Collagenase 3; assay: Inhibition of MMP13
[12] = biological target: Disintegrin and metalloproteinase domain-containing protein 17 (Homo sapiens, UniProt P78536); assay: Inhibition of TACE
Stromelysin-3 = Stromelysin-3 (Homo sapiens, UniProt P24347); assay: Inhibition of MMP11
[13] = biological target: Angiotensin-converting enzyme (Homo sapiens, UniProt P12821); assay: Inhibition of ACE
Neprilysin = Neprilysin (Homo sapiens, UniProt P08473); assay: Inhibition of NEP
[14] = Selectivity for MMP13 over MMP14
[15] = Selectivity for MMP13 over MMP1
[16] = Selectivity for MMP13 over MMP2
[17] = Selectivity for MMP13 over MMP3
[18] = Selectivity for MMP13 over MMP8
[19] = Selectivity for MMP13 over MMP9
[20] = Selectivity for MMP13 over MMP12

Matrix metalloproteinase-9, sequence (P14780 whole entry): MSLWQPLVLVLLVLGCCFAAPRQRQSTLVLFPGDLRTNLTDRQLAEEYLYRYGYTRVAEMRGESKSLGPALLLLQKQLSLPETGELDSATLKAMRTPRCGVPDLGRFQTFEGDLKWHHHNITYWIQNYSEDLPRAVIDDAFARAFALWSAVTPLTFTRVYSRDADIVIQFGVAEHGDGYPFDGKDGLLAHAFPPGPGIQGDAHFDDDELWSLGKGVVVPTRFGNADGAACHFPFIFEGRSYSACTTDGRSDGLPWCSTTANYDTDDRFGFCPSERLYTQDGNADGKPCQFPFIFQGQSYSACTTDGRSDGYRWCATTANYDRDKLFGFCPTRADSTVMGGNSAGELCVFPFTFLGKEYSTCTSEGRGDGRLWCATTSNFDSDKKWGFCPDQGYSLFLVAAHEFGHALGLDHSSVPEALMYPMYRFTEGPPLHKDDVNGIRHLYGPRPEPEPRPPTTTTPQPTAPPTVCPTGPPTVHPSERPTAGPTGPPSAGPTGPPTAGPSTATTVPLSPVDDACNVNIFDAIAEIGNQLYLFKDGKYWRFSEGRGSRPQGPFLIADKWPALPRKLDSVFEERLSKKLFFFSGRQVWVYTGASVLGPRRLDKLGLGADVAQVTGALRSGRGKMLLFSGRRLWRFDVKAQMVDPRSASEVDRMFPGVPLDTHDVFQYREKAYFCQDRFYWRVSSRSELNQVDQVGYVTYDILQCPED
72 kDa type IV collagenase, sequence (P08253 whole entry): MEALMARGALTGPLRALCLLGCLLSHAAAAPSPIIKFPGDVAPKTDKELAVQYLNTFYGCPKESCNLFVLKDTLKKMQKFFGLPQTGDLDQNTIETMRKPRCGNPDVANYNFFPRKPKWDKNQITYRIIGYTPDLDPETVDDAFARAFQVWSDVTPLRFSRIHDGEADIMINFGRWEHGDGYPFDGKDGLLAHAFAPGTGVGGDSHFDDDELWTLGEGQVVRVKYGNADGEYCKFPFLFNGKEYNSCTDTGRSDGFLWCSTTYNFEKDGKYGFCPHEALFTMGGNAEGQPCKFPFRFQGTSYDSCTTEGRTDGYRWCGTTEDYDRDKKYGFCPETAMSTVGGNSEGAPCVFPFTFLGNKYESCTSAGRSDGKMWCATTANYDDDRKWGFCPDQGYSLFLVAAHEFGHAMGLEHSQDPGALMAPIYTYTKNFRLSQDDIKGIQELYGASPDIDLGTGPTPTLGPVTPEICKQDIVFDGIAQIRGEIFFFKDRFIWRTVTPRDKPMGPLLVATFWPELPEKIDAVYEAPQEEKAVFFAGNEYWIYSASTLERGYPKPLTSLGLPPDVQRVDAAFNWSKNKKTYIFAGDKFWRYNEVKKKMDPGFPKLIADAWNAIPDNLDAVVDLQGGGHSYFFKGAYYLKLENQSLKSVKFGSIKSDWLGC
Stromelysin-1, sequence (P08254 whole entry): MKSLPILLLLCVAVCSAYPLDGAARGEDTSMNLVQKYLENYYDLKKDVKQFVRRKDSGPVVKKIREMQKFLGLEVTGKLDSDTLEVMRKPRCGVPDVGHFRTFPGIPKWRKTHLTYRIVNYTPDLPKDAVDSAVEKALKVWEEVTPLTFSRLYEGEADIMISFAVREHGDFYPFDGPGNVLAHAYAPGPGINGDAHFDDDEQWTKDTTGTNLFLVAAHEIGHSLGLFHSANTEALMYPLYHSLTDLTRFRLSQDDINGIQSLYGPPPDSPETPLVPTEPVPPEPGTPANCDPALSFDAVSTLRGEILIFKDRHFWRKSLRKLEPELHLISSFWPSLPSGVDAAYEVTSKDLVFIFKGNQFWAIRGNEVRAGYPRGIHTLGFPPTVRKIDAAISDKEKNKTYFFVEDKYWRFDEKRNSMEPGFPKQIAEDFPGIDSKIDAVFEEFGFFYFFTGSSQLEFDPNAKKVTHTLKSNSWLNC
Disintegrin and metalloproteinase domain-containing protein 33, sequence (Q9BZ11 whole entry, the tested form may be a part): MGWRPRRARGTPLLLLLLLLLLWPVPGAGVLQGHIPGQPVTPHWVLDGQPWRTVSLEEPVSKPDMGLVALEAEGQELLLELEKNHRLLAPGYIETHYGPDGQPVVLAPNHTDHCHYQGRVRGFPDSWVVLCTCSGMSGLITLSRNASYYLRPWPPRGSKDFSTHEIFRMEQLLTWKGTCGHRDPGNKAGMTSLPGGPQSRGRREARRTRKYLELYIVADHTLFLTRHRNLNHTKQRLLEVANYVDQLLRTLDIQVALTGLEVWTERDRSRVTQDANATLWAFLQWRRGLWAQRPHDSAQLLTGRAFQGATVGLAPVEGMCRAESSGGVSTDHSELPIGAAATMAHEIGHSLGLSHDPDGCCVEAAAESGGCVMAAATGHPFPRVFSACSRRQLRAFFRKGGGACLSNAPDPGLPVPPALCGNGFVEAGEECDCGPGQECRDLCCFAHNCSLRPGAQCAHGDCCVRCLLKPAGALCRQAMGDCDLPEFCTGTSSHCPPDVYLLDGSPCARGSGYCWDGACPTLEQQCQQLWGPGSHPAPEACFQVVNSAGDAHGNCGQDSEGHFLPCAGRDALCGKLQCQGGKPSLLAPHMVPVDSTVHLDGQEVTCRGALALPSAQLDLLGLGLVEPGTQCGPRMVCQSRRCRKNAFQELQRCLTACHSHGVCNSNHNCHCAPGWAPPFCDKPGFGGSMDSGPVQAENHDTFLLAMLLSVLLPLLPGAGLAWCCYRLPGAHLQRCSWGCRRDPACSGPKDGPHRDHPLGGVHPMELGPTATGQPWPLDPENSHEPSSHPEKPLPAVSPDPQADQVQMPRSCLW
Disintegrin and metalloproteinase domain-containing protein 9, sequence (Q13443 whole entry, the tested form may be a part): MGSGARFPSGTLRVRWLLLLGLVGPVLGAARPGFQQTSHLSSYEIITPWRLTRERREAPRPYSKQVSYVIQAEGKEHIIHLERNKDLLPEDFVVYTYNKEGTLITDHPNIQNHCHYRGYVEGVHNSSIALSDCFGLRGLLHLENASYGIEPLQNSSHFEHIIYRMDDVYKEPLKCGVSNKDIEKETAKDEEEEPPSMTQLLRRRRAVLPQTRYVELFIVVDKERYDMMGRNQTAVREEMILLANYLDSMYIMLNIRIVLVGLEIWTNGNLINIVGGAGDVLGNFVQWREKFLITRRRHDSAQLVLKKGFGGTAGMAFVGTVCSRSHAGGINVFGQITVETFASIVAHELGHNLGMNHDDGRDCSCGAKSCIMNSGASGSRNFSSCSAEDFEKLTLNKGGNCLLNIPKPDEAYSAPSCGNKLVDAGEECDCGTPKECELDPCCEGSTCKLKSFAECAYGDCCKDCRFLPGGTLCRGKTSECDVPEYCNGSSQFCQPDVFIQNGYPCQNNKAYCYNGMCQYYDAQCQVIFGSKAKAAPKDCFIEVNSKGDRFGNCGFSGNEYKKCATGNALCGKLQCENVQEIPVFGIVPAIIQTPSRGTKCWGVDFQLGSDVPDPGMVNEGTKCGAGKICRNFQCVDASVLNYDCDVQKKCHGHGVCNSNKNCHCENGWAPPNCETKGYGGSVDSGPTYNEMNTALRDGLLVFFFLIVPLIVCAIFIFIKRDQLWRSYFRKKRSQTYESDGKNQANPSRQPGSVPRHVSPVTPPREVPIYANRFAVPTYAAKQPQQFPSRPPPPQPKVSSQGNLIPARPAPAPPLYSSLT
Disintegrin and metalloproteinase domain-containing protein 17, sequence (P78536 whole entry, the tested form may be a part): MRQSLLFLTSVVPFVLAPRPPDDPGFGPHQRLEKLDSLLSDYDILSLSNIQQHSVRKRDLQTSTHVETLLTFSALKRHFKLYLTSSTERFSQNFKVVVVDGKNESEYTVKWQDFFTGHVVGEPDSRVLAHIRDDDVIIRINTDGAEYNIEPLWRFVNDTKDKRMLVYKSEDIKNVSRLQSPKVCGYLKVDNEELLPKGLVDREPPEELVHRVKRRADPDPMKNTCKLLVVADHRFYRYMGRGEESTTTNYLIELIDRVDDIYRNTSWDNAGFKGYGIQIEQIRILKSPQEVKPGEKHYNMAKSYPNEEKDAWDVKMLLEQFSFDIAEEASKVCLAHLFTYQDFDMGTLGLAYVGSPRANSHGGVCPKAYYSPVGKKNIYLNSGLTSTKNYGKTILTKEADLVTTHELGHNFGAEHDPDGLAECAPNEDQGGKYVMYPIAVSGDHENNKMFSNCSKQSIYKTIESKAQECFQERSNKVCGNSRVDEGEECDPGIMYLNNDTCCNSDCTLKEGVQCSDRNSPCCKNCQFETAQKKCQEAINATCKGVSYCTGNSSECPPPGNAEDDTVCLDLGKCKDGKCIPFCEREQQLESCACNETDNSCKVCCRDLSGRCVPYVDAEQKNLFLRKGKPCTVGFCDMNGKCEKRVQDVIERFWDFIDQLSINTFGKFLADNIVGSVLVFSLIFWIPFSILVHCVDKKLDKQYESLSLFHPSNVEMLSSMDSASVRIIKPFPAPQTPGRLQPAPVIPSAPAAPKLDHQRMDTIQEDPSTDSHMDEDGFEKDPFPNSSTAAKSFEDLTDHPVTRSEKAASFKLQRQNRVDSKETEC
Neprilysin, sequence (P08473 whole entry): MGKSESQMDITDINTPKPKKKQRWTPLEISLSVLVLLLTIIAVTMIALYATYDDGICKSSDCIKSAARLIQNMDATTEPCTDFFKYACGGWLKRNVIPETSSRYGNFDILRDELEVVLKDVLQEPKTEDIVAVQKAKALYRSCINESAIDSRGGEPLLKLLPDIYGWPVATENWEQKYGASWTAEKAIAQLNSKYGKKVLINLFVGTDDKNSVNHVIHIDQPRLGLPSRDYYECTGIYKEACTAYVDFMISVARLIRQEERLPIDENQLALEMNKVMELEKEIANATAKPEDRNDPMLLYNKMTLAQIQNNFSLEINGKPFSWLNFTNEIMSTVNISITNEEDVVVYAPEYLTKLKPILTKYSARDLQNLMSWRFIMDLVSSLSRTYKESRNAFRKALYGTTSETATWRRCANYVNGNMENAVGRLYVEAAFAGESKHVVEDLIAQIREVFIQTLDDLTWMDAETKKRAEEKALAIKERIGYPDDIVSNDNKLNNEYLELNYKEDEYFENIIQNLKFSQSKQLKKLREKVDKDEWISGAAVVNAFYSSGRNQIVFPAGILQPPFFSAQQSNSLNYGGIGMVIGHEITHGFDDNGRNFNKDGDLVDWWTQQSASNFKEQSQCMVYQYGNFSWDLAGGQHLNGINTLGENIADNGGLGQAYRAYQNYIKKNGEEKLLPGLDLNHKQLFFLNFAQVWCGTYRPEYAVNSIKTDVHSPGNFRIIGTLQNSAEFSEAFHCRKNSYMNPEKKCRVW

O=C(NCCCCN1CCOCC1)c1cc2ccccc2o1
Activity (Collagenase 3 [1]): inactive

Cc1cc(COc2ccc([C@]3(C)CCN([C@H](C)C(=O)NO)C3=O)cc2)c2ccccc2n1
Ki [2]: 15 nM
IC50 (tissue or blood): 0.35 nM

COc1ccc(CNC(=O)c2cc3c(=O)n(Cc4ccc(C(=O)O)cc4)cnc3cn2)cc1
Activity [3]: inactive
Activity (Neutrophil collagenase): inactive
Activity [4]: inactive
Activity [5]: inactive
Activity [6]: inactive
Activity [7]: inactive
Activity [8]: inactive

COC(=O)N1CC2(CC2)C[C@H](C(=O)NO)[C@H]1C(=O)N1CC=C(c2ccccc2)CC1
IC50 [2]: 1030 nM
IC50 [4]: 304 nM
IC50 [9]: > 5000 nM
IC50 (Interstitial collagenase): > 5000 nM
IC50 [10]: 35 nM
IC50 (Stromelysin-1): 3560 nM
IC50 (Matrilysin): > 5000 nM

NC(=O)[C@H](CCC(=O)O)NC(=O)[C@H](CCC(=O)O)NC(=O)[C@H](Cc1cc(-c2ccc(-c3cccc(Cl)c3)cc2)no1)CP(=O)(O)c1ccc(Br)cc1
Ki (Neutrophil collagenase): 271 nM
Ki (Collagenase 3 [11]): 49 nM
Ki [4]: 1260 nM
Ki [5]: 140 nM
Ki [12]: > 100000 nM
Ki (Stromelysin-3): 18400 nM
Ki [6]: 0.19 nM
Ki [13]: > 100000 nM
Ki (Neprilysin): > 100000 nM
Ki (Interstitial collagenase): 67000 nM
Ki [10]: 192 nM
Ki (Stromelysin-1): 40 nM
Ki (Matrilysin): 626 nM

COCCC1(Oc2ccc(Oc3ccc(-c4nc(-c5ccc(C#N)cc5)co4)cc3)cc2)C(=O)NC(=O)NC1=O
fold change (FC) [14]: 540
IC50 (Collagenase 3 [11]): 0.36 nM
fold change (FC) [15]: 2400
fold change (FC) [16]: 397
fold change (FC) [17]: 17000
fold change (FC) [18]: 394
fold change (FC) [19]: 540
fold change (FC) [20]: 619
